Read-outs that look alike come from different tables or passages of the source.
Molecular target: T1, Androgen Receptor (Homo sapiens, UniProt P10275)
T1 construct: endogenous in cells; host or cells: VCaP cells
T1 sequence (P10275 1-920): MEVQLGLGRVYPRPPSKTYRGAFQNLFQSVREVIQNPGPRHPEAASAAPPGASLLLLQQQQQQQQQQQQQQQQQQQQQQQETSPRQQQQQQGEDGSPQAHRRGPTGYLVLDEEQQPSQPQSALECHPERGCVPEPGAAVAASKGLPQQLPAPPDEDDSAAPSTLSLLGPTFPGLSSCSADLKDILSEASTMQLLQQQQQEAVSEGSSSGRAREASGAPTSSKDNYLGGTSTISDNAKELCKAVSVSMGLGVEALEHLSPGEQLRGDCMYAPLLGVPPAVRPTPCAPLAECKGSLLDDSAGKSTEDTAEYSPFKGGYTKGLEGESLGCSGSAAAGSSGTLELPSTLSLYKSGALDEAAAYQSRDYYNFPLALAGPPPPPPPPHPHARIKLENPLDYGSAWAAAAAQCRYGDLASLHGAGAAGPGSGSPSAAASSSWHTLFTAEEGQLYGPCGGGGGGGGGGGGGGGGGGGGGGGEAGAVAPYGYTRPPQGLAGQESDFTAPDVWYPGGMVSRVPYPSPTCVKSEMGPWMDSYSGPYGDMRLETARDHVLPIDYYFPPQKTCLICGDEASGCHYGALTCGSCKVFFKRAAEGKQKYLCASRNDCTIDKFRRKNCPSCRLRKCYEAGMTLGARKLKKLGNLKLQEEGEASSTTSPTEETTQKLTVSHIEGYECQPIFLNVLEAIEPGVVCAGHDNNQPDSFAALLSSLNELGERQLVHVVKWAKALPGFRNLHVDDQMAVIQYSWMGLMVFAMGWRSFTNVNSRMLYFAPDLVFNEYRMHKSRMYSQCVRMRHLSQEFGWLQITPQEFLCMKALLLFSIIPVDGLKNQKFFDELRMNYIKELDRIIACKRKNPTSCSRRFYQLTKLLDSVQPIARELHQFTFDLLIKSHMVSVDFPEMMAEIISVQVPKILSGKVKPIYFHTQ
Test: Androgen Receptor ELISA assay (PathScan AR ELISA) in VCaP cells: AR degradation, Dmax and DC50
Assay type: cell-based
How it was run: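 After 24 h exposure of VCaP cells (charcoal-stripped serum, 0.1 nM R1881 agonist, 0.1% DMSO) to seven half-log compound concentrations, residual AR in lysates was measured by PathScan ELISA (TMB absorbance, 450 nm). Cells were plated at 30,000/well and grown at least 3 days beforehand.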

[1] = VCaP cells; Table 36; read-out: VCaP DC50
[2] = VCaP, VCaP cells; Table 36; read-out: VCaP Dmax (%)
[3] = read-out: VCaP DC50; VCaP cells; Table 36
[4] = VCaP, read-out: VCaP Dmax (%), VCaP cells; Table 36

DC50 [1] | SMILES | Dmax (VCaP, read-out: VCaP Dmax (%)) | DC50 [3] | also measured
> 0.501 µM | Cc1ncsc1-c1ccc([C@H](C)NC(=O)[C@@H]2CC(O)CN2C(=O)[C@H](C(C)C)n2nccc2OCCCCCNc2ccc(C(=O)N[C@H]3C(C)(C)[C@H](Oc4ccc(C#N)c(Cl)c4)C3(C)C)cc2)cc1 (stereo partly drawn) [Example 624, (2S,4R)-1-((S)-2-(5-((5-((4-(((1r,3r)-3-(3-chloro-4-cyanophenoxy)-2,2,4,4-tetramethylcyclobutyl)carbamoyl)phenyl)amino)pentyl)oxy)-1H-pyrazol-1-yl)-3-methylbutanoyl)-4-hydroxy-N-((S)-1-(4-(4-methylthiazol-5-yl)phenyl)ethyl)pyrrolidine-2-carboxamide] |  |  | Dmax [2]: < 25%
> 0.501 µM | Cc1ncsc1-c1ccc([C@H](C)NC(=O)[C@@H]2CC(O)CN2C(=O)[C@H](C(C)C)n2nccc2OCCCCCNc2ccc(C(=O)N[C@H]3C(C)(C)[C@H](Oc4ccc(C#N)c(Cl)c4)C3(C)C)cc2)cc1 (stereo partly drawn) [Example 625, (2S,4R)-1-((R)-2-(5-((5-((4-(((1r,3r)-3-(3-chloro-4-cyanophenoxy)-2,2,4,4-tetramehtylcyclobutyl)carbamoyl)phenyl)amino)pentyl)oxy)-1H-pyrazol-1-yl)-3-methylbutanoyl)-4-hydroxy-N-((S)-1-(4-(4-methylthiazol-5-yl)phenyl)ethyl)pyrrolidine-2-carboxamide] |  |  | VCaP Dmax (%) (VCaP cells; Table 36): ++ (26% ≤ Dmax ≤ 50%)
 | Cc1ncsc1-c1ccc([C@H](C)NC(=O)[C@@H]2C[C@@H](O)CN2C(=O)[C@H](C(C)C)n2cc(Oc3ccc(OC4CCC(Oc5ccc(N6C(=S)N(c7ccc(C#N)c(C(F)(F)F)c7)C(=O)C6(C)C)cc5)CC4)nc3)cn2)cc1 (stereo partly drawn) [Example 627, (2S,4R)-1-((S)-2-(4-((6-((4-(4-(3-(4-cyano-3-(trifluoromethyl)phenyl)-5,5-dimethyl-4-oxo-2-thioxoimidazolidin-1-yl)phenoxy)cyclohexyl)oxy)pyridin-3-yl)oxy)-1H-pyrazol-1-yl)-3-methylbutanoyl)-4-hydroxy-N-((S)-1-(4-(4-methylthiazol-5-yl)phenyl)ethyl)pyrrolidine-2-carboxamide] | 26 to 50% | > 0.501 µM | 
 | Cc1ncsc1-c1ccc([C@H](C)NC(=O)[C@@H]2C[C@@H](O)CN2C(=O)[C@@H](C(C)C)n2cc(Oc3ccc(OC4CCC(Oc5ccc(N6C(=S)N(c7ccc(C#N)c(C(F)(F)F)c7)C(=O)C6(C)C)cc5)CC4)nc3)cn2)cc1 (stereo partly drawn) [Example 628, (2S,4R)-1-((R)-2-(4-((6-((4-(4-(3-(4-cyano-3-(trifluoromethyl)phenyl)-5,5-dimethyl-4-oxo-2-thioxoimidazolidin-1-yl)phenoxy)cyclohexyl)oxy)pyridin-3-yl)oxy)-1H-pyrazol-1-yl)-3-methylbutanoyl)-4-hydroxy-N-((S)-1-(4-(4-methylthiazol-5-yl)phenyl)ethyl)pyrrolidine-2-carboxamide] | 26 to 50% | > 0.501 µM | 
 | Cc1ncsc1-c1ccc([C@H](C)NC(=O)C2CC3CN2C(=O)C(C(C)(C)C)NC(=O)COCCCOCCC(CCOc2ccc(N4C(=O)N(c5ccc(C#N)c(C(F)(F)F)c5)C(=O)C4(C)C)cc2)OC(=O)CCCCCn2cc(nn2)CCC(=O)O3)cc1 (stereo partly drawn) [Example 629, (63R,8S,Z)-8-(tert-butyl)-19-(2-(4-(3-(4-cyano-3-(trifluoromethyl)phenyl)-5,5-dimethyl-4-oxo-2-thioxoimidazolidin-1-yl)phenoxy)ethyl)-N-((S)-1-(4-(4-methylthiazol-5-yl)phenyl)ethyl)-4,7,10,21-tetraoxo-11H-5,12,16,20-tetraoxa-9-aza-1(4,1)-triazola-6(3,1)-pyrrolidineacyclohexaco-saphane-65-carboxamide] | 26 to 50% | 0.051 to 0.5 µM | 
 | Cc1nccn1-c1ccc(C(C)NC(=O)C2CC(O)CN2C(=O)C(C(C)C)n2cc(-c3ccc(OC4CCN(c5ccc(N6C(=S)N(c7ccc(C#N)c(C(F)(F)F)c7)C(=O)C6(C)C)cn5)CC4)nc3)cn2)cc1 (stereo not shown) [Example 631, 1-(2-(4-(6-((1-(5-(3-(4-cyano-3-(trifluoromethyl)phenyl)-5,5-dimethyl-4-oxo-2-thioxoimidazolidin-1-yl)pyridin-2-yl)piperidin-4-yl)oxy)pyridin-3-yl)-1H-pyrazol-1-yl)-3-methylbutanoyl)-4-hydroxy-N-(1-(4-(2-methyl-1H-imidazol-1-yl)phenyl)ethyl)pyrrolidine-2-carboxamide] | < 25% | > 0.501 µM | 
 | Cc1ncoc1C12CC(CNC(=O)[C@@H]3C[C@@H](O)CN3C(=O)C(NC(=O)COCCCOCCCOc3ccc(N4C(=O)N(c5ccc(C#N)c(C(F)(F)F)c5)C(=O)C4(C)C)cc3)C(C)(C)C)(C1)C2 (stereo partly drawn) [Example 633, (2S,4)R-1-((S)-2-(2-(3-((5-(4-(3-(4-cyano-3-(trifluoromethyl)phenyl)-5,5-dimethyl-4-oxo-2-thioxoimidazolidin-1-yl)phenoxy)pentyl)oxy)propoxy)acetamido)-3,3-dimethylbutanoyl)-4-hydroxy-N-((3-(4-methyloxazol-5-yl)bicyclo[1,.1.1]pentan-1-yl)methyl)pyrrolidine-2-carboxamide] | < 25% | > 0.501 µM | 
< 0.05 µM | Cc1ncsc1-c1ccc([C@H](C)NC(=O)[C@@H]2C[C@@H](O)CN2C(=O)[C@@H](NC(=O)CO[C@H](C)CN2CCN(c3ccc(C(=O)N[C@H]4C(C)(C)[C@H](Oc5ccc(C#N)c(Cl)c5)C4(C)C)cc3)CC2)C(C)(C)C)cc1 [Example 634, (2S,4R)-1-((S)-2-(2-(((R)-1-(4-(4-(((1r,3R)-3-(3-chloro-4-cyanophenoxy)-2,2,4,4-tetramethylcyclobutyl)carbamoyl)phenyl)piper-azin-1-yl)propan-2-yl)oxy)acetamido)-3,3-dimethylbutanoyl)-4-hydroxy-N-((S)-1-(4-(4-methylthiazol-5-yl)phenyl)ethyl)pyrrolidine-2-carboxamide] |  |  | Dmax [2]: > 71%
< 0.05 µM | Cc1ncsc1-c1ccc([C@H](C)NC(=O)[C@@H]2C[C@@H](O)CN2C(=O)[C@@H](NC(=O)COCCCOCCCCCOc2ccc(C(=O)N[C@H]3C(C)(C)[C@H](Oc4ccc(C#N)c(Cl)c4)C3(C)C)cc2)C(C)(C)C)cc1 [Example 635, (2S,4R)-1-((S)-2-(2-(3-((5-(4-(((1r,3r)-3-(3-chloro-4-cyanophenoxy)-2,2,4,4-tetramethylcyclobutyl)carbamoyl)phenoxy)pen-tyl)oxy)propoxy)aceta-mido)-3,3-dimethylbutanoyl)-4-hydroxy-N-((S)-1-(4-(4-methylthiazol-5-yl)phenyl)ethyl)pyrrolidine-2-carboxamide] |  |  | Dmax [4]: 51 to 70%

SMILES | DC50 [1] | Dmax (VCaP, read-out: VCaP Dmax (%)) | DC50 [3] | also measured
Cc1ncsc1-c1ccc([C@H](C)NC(=O)[C@@H]2C[C@@H](O)CN2C(=O)[C@@H](NC(=O)COCCCCOc2ccc(-c3ccc(C(=O)N[C@H]4C(C)(C)[C@H](Oc5ccc(C#N)c(Cl)c5)C4(C)C)cc3)cc2)C(C)(C)C)cc1 [Example 630, (2S,4R)-1-((S)-2-(2-(4-((4′-(((1r,3r)-3-(3-chloro-4-cyanophenoxy)-2,2,4,4-tetramethylcyclobutyl)carbamoyl)-[1,1′-biphenyl]-4-yl)oxy)butoxy)acetamido)-3,3-dimethylbutanoyl)-4-hydroxy-N-((S)-1-(4-(4-methylthiazol-5-yl)phenyl)ethyl)pyrrolidine-2-carboxamide] | < 0.05 µM |  |  | Dmax [4]: > 71%
C#CCCC(=O)OC(CCOCCCOCC(=O)N[C@H](C(=O)N1C[C@H](O)C[C@H]1C(=O)N[C@@H](C)c1ccc(-c2scnc2C)cc1)C(C)(C)C)CCOc1ccc(N2C(=S)N(c3ccc(C#N)c(C(F)(F)F)c3)C(=O)C2(C)C)cc1 (stereo partly drawn) [Example 632, 1-(4-(3-(4-cyano-3-(trifluoromethyl)phenyl)-5,5-dimethyl-4-oxo-2-thioxoimidazolidin-1-yl)phenoxy)-5-(3-(2-(((S)-1-((2S,4R)-4-hydroxy-2-(((S)-1-(4-(4-mehtylthiazol-5-yl)phenyl)ethyl)carbam-oyl)pyrrolidin-1-yl)-3,3-dimethyl-1-oxobutan-2-yl)amino)-2-oxoethoxy)propoxy)pen-tan-3-yl pent-4-ynoate] | > 0.501 µM |  |  | VCaP Dmax (%) (VCaP cells; Table 36): ++ (26% ≤ Dmax ≤ 50%)
